Where a SMILES comes first, the peptide text is derived from it. [ ]: non-standard residue; d: D form.
Columns and labels:
[1] = Brain levels after intraperitoneal administration (HPLC-MS/MS); type: in vivo; details: mice
Experimental: APP23 mice (Harlan, Correzzana, Italy) were treated by intraperitoneal injection with Aβ1-6A2VTAT(D) (10 mg/kg) or vehicle (saline solution) and sacrificed 1 h or 24 h after the last treatment. Aβ1-6A2VTAT(D) was quantified in mouse brain using HPLC-MS/MS[45]. The stability of Aβ1-6A2VTAT(D) to protease digestion was also investigated by MALDI TOF MS (See Supplementary Information for details).
To verify Aβ1-6A2VTAT(D) distribution in vivo, and particularly its bioavailability in the brain, we determined Aβ1-6A2VTAT(D) levels in mice brains after i.p. injection at a dose of 10 mg/kg. Mice were sacrificed at two intervals (1 h, 24 h). Aβ1-6A2VTAT(D) was then quantified in mouse brain using HPLC-MS/MS.
The quantitative levels of Aβ1-6A2VTAT(D) in the brain were determined by following a previously described procedure ^4.
Supplementary Figure 4S Aβ1-6A2VTAT(D) levels in mouse brain (n=4). Data are reported as mean ± SEM of peptide/mg tissue. Animals were treated i.p. at a dose of 10 mg/kg. Animals were sacrificed 1 h or 24 h after last administration following 21 […] treatments (*p < 0.05 T1-1h vs T1-24h and Student’s t-test).

[2] = tested on: SH-SY5Y cells; test: Toxicity of peptides on differentiated SH-SY5Y cells (MTT test); type: cell-based, human; details: 24 h
Experimental: Figure 2 Analysis of the effects of Aβ1-6WT(D), Aβ1-6A2V(D) and Aβ1-6A2VTAT(D) on neurotoxicity in cell models. SH-SY5Y cells were differentiated with 10 μM retinoic acid. […] Comparison of cell viability was performed by Student t-test.
Toxicity studies with Aβ1-6WT(D), Aβ1-6A2V(D) or Aβ1-6A2VTAT(D) and the short peptides’ ability to inhibit the toxicity induced by Aβ1-42WT in SH-SY5Y cell cultures were analyzed following previously described protocols. Each experiment was performed in triplicate; the data provided were obtained as the mean of three independent assays.

[3] = target: T1, Aβ1-42WT (Homo sapiens, UniProt P05067); test: Atomic force microscopy of Aβ1-42WT oligomerization; type: biochemical; details: Aβ1-42WT 100 μM co-incubated with peptide 1:4, pH 7.4, 4 °C, 24 h, AFM
T1 construct: Aβ1-42WT oligomers were formed following incubation of Aβ1-42WT at a final concentration of 100 μM; made in house; host or cells: chemical synthesis (solid-phase Fmoc), no expression host
T1 sequence (P05067 672-713 limits assumed): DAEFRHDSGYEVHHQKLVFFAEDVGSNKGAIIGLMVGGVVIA
Experimental: In polarized-light and EM studies, both peptides were used at 0.125 mM, molar ratio = 1:1 or 1:4 respectively, with 20 days incubation. […] E,F: Representative Tapping mode of AFM images as determined by amplitude error data of Aβ1-42WT oligomers. Aβ1-42WT peptide 100 μM in phosphate buffer 50 mM, pH 7.4 was incubated at 4 °C for 24 h alone (E) (Z range: -10/ + 10 mV) or in presence of Aβ1-6A2VTAT(D) (F) (Z range: -10/ + 25 mV). The molar ratio of Aβ1-42WT to Aβ1-6A2VTAT(D) was 1:4. Scale bar: 1 μm, inset: 200 nm. (G,H): height plot profiles obtained along different lines traced on the topographic AFM images.
Aβ1-42WT oligomers were formed following incubation of Aβ1-42WT at a final concentration of 100 μM in phosphate buffer 50 mM, pH 7.4 at 4 °C for 24 h, alone or in presence of Aβ1-6A2VTAT(D), at 1:4 molar ratio. Sample solutions were diluted to a final concentration of 10 μM of Aβ1-42WT with phosphate buffer and 50 μl of each solution was immediately added onto freshly cleaved mica at room temperature for 2 minutes. Samples were washed and dried under gentle nitrogen flow. AFM analyses were carried out on a Multimode AFM with a Nanoscope V system (Veeco/Digital Instruments). AFM images were analysed using the Scanning Probe Image Processor data analysis package. All the topographic patterns and SPIP characterization were verified via additional measurements on a minimum of five different, well separated areas.

[4] = tested on: OP50 E. coli; details: peptide 1 µg/µl, 24 h, 25 °C and 37 °C, MALDI TOF MS, small fraction cleaved at Gly 11
Experimental: (§1) The stability of Aβ1-6A2VTAT(D) peptide to protease digestion was also investigated. To this end, the peptide (1µg/µl) was incubated at 37 °C with 10 ng/µl of proteinase K and in the presence of OP50 E. coli. […] Samples were potted on a metallic plate (MTP 384 Ground Steel, Bruker) before and 24 h after incubation at 25 °C and 37 °C, and analyzed by MALDI TOF mass spectrometry (MS).

[5] = target: proteinase K (Parengyodontium album, UniProt P06873); details: peptide 1 µg/µl, 10 ng/µl proteinase K, 24 h, 25 °C and 37 °C, MALDI TOF MS; small fraction cleaved at Gly 11
proteinase K, sequence (P06873 106-384, species assumed): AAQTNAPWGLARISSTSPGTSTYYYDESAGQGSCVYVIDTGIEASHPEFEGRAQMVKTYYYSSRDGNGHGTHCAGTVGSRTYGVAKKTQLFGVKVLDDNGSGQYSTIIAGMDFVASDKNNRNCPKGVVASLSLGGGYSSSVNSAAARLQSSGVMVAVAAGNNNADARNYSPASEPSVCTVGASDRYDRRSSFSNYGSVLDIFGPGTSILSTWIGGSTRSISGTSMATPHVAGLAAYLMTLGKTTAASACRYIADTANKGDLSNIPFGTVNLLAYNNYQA
Experimental: as §1

[6] = target: T1, Aβ1-42WT; test: CD spectroscopy of Aβ1-42WT secondary structure; type: biochemical; details: data not shown

## CC(C)[C@@H](NC(=O)[C@H](N)CC(=O)O)C(=O)N[C@H](CCC(=O)O)C(=O)N[C@H](Cc1ccccc1)C(=O)N[C@H](CCCNC(=N)N)C(=O)N[C@H](Cc1c[nH]cn1)C(=O)NCC(=O)NCC(=O)NCC(=O)NCC(=O)NCC(=O)N[C@H](CCCNC(=N)N)C(=O)N[C@H](CCCCN)C(=O)N[C@H](CCCCN)C(=O)N[C@H](CCCNC(=N)N)C(=O)N[C@H](CCCNC(=N)N)C(=O)N[C@H](CCC(N)=O)C(=O)N[C@H](CCCNC(=N)N)C(=O)N[C@H](CCCNC(=N)N)C(=O)N[C@H](CCCNC(=N)N)C(=O)O [Aβ1-6A2VTAT(D)] (H-[dD][dV][dE][dF][dR][dH]GGGGG[dR][dK][dK][dR][dR][dQ][dR][dR][dR]-OH; N-terminus assumed)
[1]; APP23, mouse, brain, ip, i.p. 10 mg/kg once a week for five months (21 weekly treatments), 1 h, HPLC-MS/MS, mean ± SEM, n=4, read-out: brain levels 1 h after last treatment
  tissue level at time at 1 h: 145 ± 38.3 ng/g
[1]; APP23, mouse, brain, ip, i.p. 10 mg/kg once a week for five months (21 weekly treatments), 24 h, HPLC-MS/MS, mean ± SEM, n=4, read-out: brain levels 24 h after last treatment
  tissue level at time at 24 h: 62 ± 28.7 ng/g
[1]; i.p. administration
  ability to cross the BBB: able to cross the BBB
[2]; 1 to 5 μM
  toxicity at concentrations between 1 and 5 μM: not toxic
[2]; higher concentrations
  toxicity at concentrations higher than 5 μM: reduces cell viability at higher concentrations
[3]
  diameter of very small globular structures (~70%): 5-8 nm
  oligomeric structures of Aβ1-42WT detected: only rare oligomeric structures were detected
[4]
  resistance to digestion with bacteria proteases: largely resistant
[5]
  resistance to digestion with proteinase K: largely resistant
[6]
  acquisition of β-sheet conformation by Aβ1-42WT: inhibits the acquisition of β-sheet conformation by Aβ1-42WT
